Assay results from patent US8952024B2, “Herbicidal pyrimidone derivatives” (E I du Pont de Nemours and Company, priority 2009, dated 2015).

Assays:
Test in all cases: Test B pre-/postemergence plant response
Format in all cases: in vivo
[1] = test system: Italian ryegrass (Lolium multiflorum)
Procedure, shortened: (§1)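 Greenhouse herbicide screen. Pre- and postemergence (1- to 4-leaf) spray of compound in solvent/surfactant mixture; loam–sand soil for pre, peat/vermiculite medium for post. Visual control rating 0–100 at 13 to 15 days after treatment.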

[2] = test system: Surinam grass (Brachiaria decumbens)
Procedure, shortened: as §1

[3] = test system: bermudagrass (Cynodon dactylon)
Procedure, shortened: as §1

[4] = test system: blackgrass (Alopecurus myosuroides)
Procedure, shortened: as §1

[5] = test system: cocklebur (Xanthium strumarium)
Procedure, shortened: as §1

corn (Zea mays) = test system: corn (Zea mays)
Procedure, shortened: as §1

[6] = test system: downy bromegrass (Bromus tectorum)
Procedure, shortened: as §1

[7] = test system: green foxtail (Setaria viridis)
Procedure, shortened: as §1

kochia (Kochia scoparia) = test system: kochia (Kochia scoparia)
Procedure, shortened: as §1

[8] = test system: lambsquarters (Chenopodium album)
Procedure, shortened: as §1

[9] = test system: large crabgrass (Digitaria sanguinalis)
Procedure, shortened: as §1

[10] = test system: pigweed (Amaranthus retroflexus)
Procedure, shortened: as §1

[11] = test system: ragweed (common ragweed, Ambrosia elatior)
Procedure, shortened: as §1

soybean (Glycine max) = test system: soybean (Glycine max)
Procedure, shortened: as §1

[12] = test system: velvetleaf (Abutilon theophrasti)
Procedure, shortened: as §1

wild oat (Avena fatua) = test system: wild oat (Avena fatua)
Procedure, shortened: as §1

[13] = test system: yellow nutsedge (Cyperus esculentus)
Procedure, shortened: as §1

[14] = 31 g ai/ha, postemergence, scale 0 to 100, 0 is no effect, 100 is complete control
[15] = 62 g ai/ha, postemergence, 0 is no effect, 100 is complete control, 13 to 15 days
[16] = Postemergence, 125 g ai/ha, visual rating after 13 to 15 days, scale 0 (no effect) to 100 (complete control)
[17] = Postemergence, 250 g ai/ha, scale 0 to 100 (0 no effect, 100 complete control)
[18] = Preemergence, 31 g ai/ha, scale 0 to 100 (0 no effect, 100 complete control)
[19] = Preemergence, 62 g ai/ha, scale 0 to 100, 0 no effect, 100 complete control
[20] = Preemergence, 125 g ai/ha, scale 0 to 100, 0 no effect, 100 complete control
[21] = Preemergence, 250 g ai/ha, 0 to 100 scale

SMILES: CCCCn1c(CCC)ncc(C(=O)C2=C(O)CCCC2=O)c1=O [Compound 75]
- Plant response rating, Ryegrass, Italian [1, 14]: 0
- Ryegrass, Italian plant response rating (0 to 100 scale) [1, 15]: 15
- Plant response rating, Ryegrass, Italian [1, 16]: 40
- Plant response rating, Ryegrass, Italian [1, 17]: 60
- Plant response rating, Ryegrass, Italian [1, 18]: 0
- Plant response rating, Ryegrass, Italian [1, 19]: 0
- Plant response rating, Ryegrass, Italian [1, 20]: 0
- Ryegrass, Italian plant response rating [1, 21]: 0
- Plant response rating, Surinam Grass [2, 14]: 50
- Surinam Grass plant response rating (0 to 100 scale) [2, 15]: 50
- Plant response rating, Surinam Grass [2, 16]: 70
- Plant response rating, Surinam Grass [2, 17]: 85
- Plant response rating, Surinam Grass [2, 18]: 40
- Plant response rating, Surinam Grass [2, 19]: 60
- Plant response rating, Surinam Grass [2, 20]: 60
- Surinam Grass plant response rating [2, 21]: 75
- Plant response rating, Bermudagrass [3, 14]: 90
- Bermudagrass plant response rating (0 to 100 scale) [3, 15]: 98
- Plant response rating, Bermudagrass [3, 16]: 98
- Plant response rating, Bermudagrass [3, 17]: 98
- Plant response rating, Bermudagrass [3, 18]: 98
- Plant response rating, Bermudagrass [3, 19]: 100
- Plant response rating, Bermudagrass [3, 20]: 100
- Bermudagrass plant response rating ([3]; Preemergence, 250 g ai/ha, 0 to 100 scale, 0 no effect, 100 complete control): 100
- Plant response rating, Blackgrass [4, 14]: 0
- Blackgrass plant response rating (0 to 100 scale) [4, 15]: 0
- Plant response rating, Blackgrass [4, 16]: 0
- Plant response rating, Blackgrass [4, 17]: 20
- Plant response rating, Blackgrass [4, 18]: 0
- Plant response rating, Blackgrass [4, 19]: 0
- Plant response rating, Blackgrass [4, 20]: 5
- Blackgrass plant response rating [4, 21]: 10
- Plant response rating, Cocklebur [5, 14]: 40
- Cocklebur plant response rating (0 to 100 scale) [5, 15]: 80
- Plant response rating, Cocklebur [5, 16]: 95
- Plant response rating, Cocklebur [5, 17]: 95
- Plant response rating, Cocklebur [5, 18]: 10
- Plant response rating, Cocklebur [5, 19]: 20
- Plant response rating, Cocklebur [5, 20]: 75
- Cocklebur plant response rating [5, 21]: 90
- Plant response rating, Corn (corn (Zea mays); [14]): 0
- Corn plant response rating (0 to 100 scale) (corn (Zea mays); [15]): 0
- Plant response rating, Corn (corn (Zea mays); [16]): 20
- Plant response rating, Corn (corn (Zea mays); [17]): 55
- Plant response rating, Corn (corn (Zea mays); [18]): 0
- Plant response rating, Corn (corn (Zea mays); [19]): 0
- Plant response rating, Corn (corn (Zea mays); [20]): 0
- Corn plant response rating (corn (Zea mays); [21]): 0
- Plant response rating, Bromegrass, Downy [6, 14]: 5
- Bromegrass, Downy plant response rating (0 to 100 scale) [6, 15]: 20
- Plant response rating, Bromegrass, Downy [6, 16]: 35
- Plant response rating, Bromegrass, Downy [6, 17]: 50
- Plant response rating, Bromegrass, Downy [6, 18]: 0
- Plant response rating, Bromegrass, Downy [6, 19]: 0
- Plant response rating, Bromegrass, Downy [6, 20]: 0
- Bromegrass, Downy plant response rating [6, 21]: 0
- Plant response rating, Foxtail, Green [7, 14]: 65
- Foxtail, Green plant response rating (0 to 100 scale) [7, 15]: 85
- Plant response rating, Foxtail, Green [7, 16]: 90
- Plant response rating, Foxtail, Green [7, 17]: 90
- Plant response rating, Foxtail, Green [7, 18]: 5
- Plant response rating, Foxtail, Green [7, 19]: 50
- Plant response rating, Foxtail, Green [7, 20]: 50
- Foxtail, Green plant response rating [7, 21]: 98
- Plant response rating, Kochia (kochia (Kochia scoparia); [14]): 75
- Kochia plant response rating (0 to 100 scale) (kochia (Kochia scoparia); [15]): 95
- Plant response rating, Kochia (kochia (Kochia scoparia); [16]): 100
- Plant response rating, Kochia (kochia (Kochia scoparia); [17]): 100
- Plant response rating, Kochia (kochia (Kochia scoparia); [18]): 80
- Plant response rating, Kochia (kochia (Kochia scoparia); [19]): 90
- Plant response rating, Kochia (kochia (Kochia scoparia); [20]): 90
- Kochia plant response rating (kochia (Kochia scoparia); [21]): 95
- Plant response rating, Lambsquarters [8, 14]: 98
- Lambsquarters plant response rating (0 to 100 scale) [8, 15]: 100
- Plant response rating, Lambsquarters [8, 16]: 100
- Plant response rating, Lambsquarters [8, 17]: 100
- Plant response rating, Lambsquarters [8, 18]: 98
- Plant response rating, Lambsquarters [8, 19]: 100
- Plant response rating, Lambsquarters [8, 20]: 100
- Lambsquarters plant response rating [8, 21]: 100
- Plant response rating, Crabgrass, Large [9, 14]: 95
- Crabgrass, Large plant response rating (0 to 100 scale) [9, 15]: 98
- Plant response rating, Crabgrass, Large [9, 16]: 100
- Plant response rating, Crabgrass, Large [9, 17]: 100
- Plant response rating, Crabgrass, Large [9, 18]: 98
- Plant response rating, Crabgrass, Large [9, 19]: 100
- Plant response rating, Crabgrass, Large [9, 20]: 100
- Crabgrass, Large plant response rating [9, 21]: 100
- Plant response rating, Pigweed [10, 14]: 100
- Pigweed plant response rating (0 to 100 scale) [10, 15]: 100
- Plant response rating, Pigweed [10, 16]: 100
- Plant response rating, Pigweed [10, 17]: 100
- Plant response rating, Pigweed [10, 18]: 98
- Plant response rating, Pigweed [10, 19]: 100
- Plant response rating, Pigweed [10, 20]: 100
- Pigweed plant response rating [10, 21]: 100
- Plant response rating, Ragweed [11, 14]: 80
- Ragweed plant response rating (0 to 100 scale) [11, 15]: 85
- Plant response rating, Ragweed [11, 16]: 90
- Plant response rating, Ragweed [11, 17]: 95
- Plant response rating, Ragweed [11, 18]: 75
- Plant response rating, Ragweed [11, 19]: 75
- Plant response rating, Ragweed [11, 20]: 95
- Ragweed plant response rating [11, 21]: 95
- Plant response rating, Soybean (soybean (Glycine max); [14]): 80
- Soybean plant response rating (0 to 100 scale) (soybean (Glycine max); [15]): 95
- Plant response rating, Soybean (soybean (Glycine max); [16]): 98
- Plant response rating, Soybean (soybean (Glycine max); [17]): 98
- Plant response rating, Velvetleaf [12, 14]: 100
- Velvetleaf plant response rating (0 to 100 scale) [12, 15]: 100
- Plant response rating, Velvetleaf [12, 16]: 100
- Plant response rating, Velvetleaf [12, 17]: 100
- Plant response rating, Velvetleaf [12, 18]: 100
- Plant response rating, Velvetleaf [12, 19]: 100
- Plant response rating, Velvetleaf [12, 20]: 100
- Velvetleaf plant response rating [12, 21]: 100
- Plant response rating, Oat, Wild (wild oat (Avena fatua); [14]): 0
- Oat, Wild plant response rating (0 to 100 scale) (wild oat (Avena fatua); [15]): 20
- Plant response rating, Oat, Wild (wild oat (Avena fatua); [16]): 50
- Plant response rating, Oat, Wild (wild oat (Avena fatua); [17]): 60
- Plant response rating, Oat, Wild (wild oat (Avena fatua); [18]): 0
- Plant response rating, Oat, Wild (wild oat (Avena fatua); [19]): 0
- Plant response rating, Oat, Wild (wild oat (Avena fatua); [20]): 0
- Oat, Wild plant response rating (wild oat (Avena fatua); [21]): 0
- Plant response rating, Nutsedge, Yellow [13, 14]: 10
- Nutsedge, Yellow plant response rating (0 to 100 scale) [13, 15]: 65
- Plant response rating, Nutsedge, Yellow [13, 16]: 70
- Plant response rating, Nutsedge, Yellow [13, 17]: 75
- Plant response rating, Nutsedge, Yellow [13, 18]: 60
- Plant response rating, Nutsedge, Yellow [13, 19]: 80
- Plant response rating, Nutsedge, Yellow [13, 20]: 90
- Nutsedge, Yellow plant response rating [13, 21]: 90
